Data taken from patent US20140113904A1, “TREATMENT OF CANCER WITH TOR KINASE INHIBITORS” (SIGNAL PHARMACEUTICALS, LLC, priority 2012, published 2014).

Tests used:
[1] = system: GSK3β(S9); assay: Phospho-GSK3β(S9) in PC3 cell lysates, Luminex multiplex; format: cell-based, human; conditions: PC3, 1 hour exposure; read-out: p-GSK3β (S9) IC50
Source text: (§1) The direct substrate for TORC1 was 4E-BP 1(T46) and indirect downstream substrate was S6RP(S235/S236). The direct substrate for TORC2 was Akt(S473) and indirect downstream substrates measured were GSK3β(S9) and PRAS40(T246). Additionally, the phosphorylation status of Akt(T308), a phosphorylation site for PDK1 was monitored.
(§2) The multiplex Luminex assay format differs from conventional enzyme-linked immunosorbent assay (ELISA) in that the multiplex capture antibody is attached to a polystyrene bead whereas the ELISA capture antibody is attached to the microplate well. The use of the suspension bead-based technology enables the multiplexing capabilities of the Luminex assays. The xMAP® technology uses 5.6 micron polystyrene microspheres, which are internally dyed with red and infrared fluorophores of differing intensities. Each bead is given a unique number, or bead region, allowing differentiation of one bead from another. Beads covalently bound to different specific antibodies can be mixed in the same assay, utilizing a 96-well microplate format. At the completion of the sandwich immunoassay, beads can be read, using the Luminex 100™ or Luminex 200 detection system, in single-file by dual lasers for classification and quantification of each analyte. […]

[2] = system: S6RP(S235/S236); assay: Phospho-S6RP(S235/S236) in PC3 cell lysates, MSD; format: cell-based, human; conditions: PC3, 1 hour exposure; read-out: p-S6RP(S235/S236) IC50
Source text: as §1
MSD® biomarker detection assays provide a rapid and convenient method for measuring the total and phosphorylated levels of protein targets within a single small volume sample. These assays are available in both single-plex and multiplex formats. In a single-plex assay, an antibody for a specific protein target is coated on one electrode (or spot) per well. […] MSD Read Buffer that provides the appropriate chemical environment for ECL is added and the plate is read using an MSD SECTOR™ Imager. […] The instrument measures intensity of the emitted light to afford a quantitative measure of the amount of phosphorylated Akt or S6RP present in the sample. […]
The assay plate was incubated with 150 μL of MSD Blocker A Solution for 1 hour with shaking at room temperature. […] Then 150 μL of 1×MSD Read Buffer T was added to each well. The plate was read on the SECTOR Imager plate reader. The Excel data was transferred to Activity Base and IC50 values were calculated.
All data was analyzed using XLfit from IDBS. […]

[3] = system: PRAS40(T246); assay: Phospho-PRAS40(T246) in PC3 cell lysates, Luminex multiplex; format: cell-based, human; conditions: PC3, 1 hour exposure; read-out: p-PRAS40 (T246) IC50
Source text: as §1, §2

[4] = system: S6RP (S235/236); assay: Phospho-S6RP (S235/S236) in PC-3 cell lysates, MSD (Compound 2); format: cell-based; conditions: Homo sapiens; PC-3, 1 hour; read-out: mTORC1 S6RP (S235/236) IC50

Row | Structure (SMILES) | IC50 [1] | IC50 [2] | IC50 [3] | IC50 [4]
1 | CO[C@H]1CC[C@H](N2C(=O)CNc3ncc(-c4ccc(C(C)(C)O)nc4)nc32)CC1 [Compound 1, 7-(6-(2-hydroxypropan-2-yl)pyridin-3-yl)-1-((1r,4r)-4-methoxycyclohexyl)-3,4-dihydropyrazino-[2,3-b]pyrazin-2(1H)-one] | 230 nM | 20 nM | 140 nM | –
2 | CCN1C(=O)CNc2ncc(-c3ccc(-c4nc[nH]n4)nc3C)nc21 [Compound 2, 1-ethyl-7-(2-methyl-6-(1H-1,2,4-triazol-3-yl)pyridin-3-yl)-3,4-dihydropyrazino[2,3-b]pyrazin-2(1H)-one] | – | – | – | 23 ± 7 nM
